Measurements taken from US20060270629A1, “Methanocarba cycloalkyl nucleoside analogues” (Govt of the U.S.A., represented by the Secretary, Dept of …, priority 2000, published 2006).

Legend:
human A2B receptor = target: T1, human A2B receptor (Homo sapiens, UniProt P29275); experiment: Radioligand binding at human A2B receptor using [3H]ZM 241,385; conditions: at 50 μM, absence of ADA
T1 sequence (P29275 1-332): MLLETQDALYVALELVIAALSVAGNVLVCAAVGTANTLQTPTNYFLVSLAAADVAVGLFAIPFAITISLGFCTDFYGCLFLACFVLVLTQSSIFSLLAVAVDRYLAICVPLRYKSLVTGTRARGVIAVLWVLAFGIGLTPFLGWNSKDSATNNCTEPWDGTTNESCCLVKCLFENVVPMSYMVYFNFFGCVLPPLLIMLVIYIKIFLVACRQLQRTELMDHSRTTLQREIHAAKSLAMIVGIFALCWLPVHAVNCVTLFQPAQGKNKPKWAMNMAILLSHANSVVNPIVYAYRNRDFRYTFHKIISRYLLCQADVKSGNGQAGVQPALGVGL
Protocol: The total volume of the reaction mixture was 125 μl. Bound and free ligands were separated by rapid filtration of the reaction mixture through Whatman GF/B glass filters. The filters were immediately washed with two 5 ml-portions of ice-cold 50 mM Tris.HCl buffer (pH 7.4). The radioactivity bound to the filters was determined in a Beckman gamma counter.

A2A receptors = A2A receptors (Homo sapiens, UniProt P29274); experiment: Radioligand binding at human A2A adenosine receptors, values marked (h); conditions: absence of ADA, read-out: K1 (nM), A2A (h)
human A3 receptors = target: T2, human A3 receptors (Homo sapiens, UniProt P0DMS8); experiment: A3 adenosine receptor binding using [125I]AB-MECA, transfected CHO cell membranes; conditions: for Ki: human A3 receptors, absence of ADA, read-out: K1 (nM), hA3; for A1/A3: ratio of Ki at rat A1 to Ki at A3 (human, or rat where marked (r))
T2 sequence (P0DMS8 1-318): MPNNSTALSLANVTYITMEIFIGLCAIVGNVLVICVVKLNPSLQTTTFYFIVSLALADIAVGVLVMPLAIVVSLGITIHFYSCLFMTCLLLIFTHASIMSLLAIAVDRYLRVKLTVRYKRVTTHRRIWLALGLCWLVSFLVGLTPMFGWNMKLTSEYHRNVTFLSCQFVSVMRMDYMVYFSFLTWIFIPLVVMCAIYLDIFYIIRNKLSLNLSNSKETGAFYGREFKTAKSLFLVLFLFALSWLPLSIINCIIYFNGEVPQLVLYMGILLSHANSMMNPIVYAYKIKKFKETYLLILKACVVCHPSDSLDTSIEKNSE
Protocol: The final pellets were resuspended in 50 mM Tris.HCl buffer, pH 7.4, containing 10 mM MgCl2 and 0.1 mM EDTA and stored at -70° C. […] The total volume of the reaction mixture was 125 μl. Bound and free ligands were separated by rapid filtration of the reaction mixture through Whatman GF/B glass filters. The filters were immediately washed with two 5 ml-portions of ice-cold 50 mM Tris.HCl buffer (pH 7.4). The radioactivity bound to the filters was determined in a Beckman gamma counter.

[1] = tested on: adenosine deaminase (ADA); experiment: Deamination by adenosine deaminase (ADA); assay type: biochemical; conditions: for relative rates of deamination: ADA, 5a set to 100
rat A1 receptors = target: T3, rat A1 receptors (Rattus norvegicus, UniProt P25099); experiment: Radioligand binding at rat A1 adenosine receptors
T3 sequence (P25099 1-326): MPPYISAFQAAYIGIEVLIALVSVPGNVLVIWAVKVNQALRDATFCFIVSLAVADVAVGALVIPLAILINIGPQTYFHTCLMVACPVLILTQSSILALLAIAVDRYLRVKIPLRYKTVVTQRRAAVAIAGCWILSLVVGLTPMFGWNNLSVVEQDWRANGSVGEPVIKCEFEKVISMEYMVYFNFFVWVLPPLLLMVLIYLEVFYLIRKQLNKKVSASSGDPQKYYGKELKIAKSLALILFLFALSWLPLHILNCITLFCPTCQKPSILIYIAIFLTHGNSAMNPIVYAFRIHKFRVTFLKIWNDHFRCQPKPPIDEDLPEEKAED
Protocol: Bound and free ligands were separated by rapid filtration of the reaction mixture through Whatman GF/B glass filters. The filters were immediately washed with two 5 ml-portions of ice-cold 50 mM Tris.HCl buffer (pH 7.4). The radioactivity bound to the filters was determined in a Beckman gamma counter.

P2Y4 = P2Y4 (Homo sapiens, UniProt P51582); conditions: cited from earlier work
[2] = target: human and turkey P2Y1 receptors; conditions: competitive antagonist; cited from earlier work
[3] = target: T4, adenylyl cyclase-linked P2Y receptor in C6 glioma cells (Rattus norvegicus, UniProt Q9EPX4); conditions: cited from earlier work
T4 construct: at the adenylyl cyclase-linked P2Y receptor in C6 glioma cells; host or cells: C6 glioma cells (endogenous receptor)

P2Y6 = P2Y6 (Homo sapiens, UniProt Q15077); conditions: cited from earlier work
P2X1 receptors = target: T5, P2X1 receptors (Homo sapiens, UniProt P51575); conditions: cited from earlier work
T5 sequence (P51575 1-399): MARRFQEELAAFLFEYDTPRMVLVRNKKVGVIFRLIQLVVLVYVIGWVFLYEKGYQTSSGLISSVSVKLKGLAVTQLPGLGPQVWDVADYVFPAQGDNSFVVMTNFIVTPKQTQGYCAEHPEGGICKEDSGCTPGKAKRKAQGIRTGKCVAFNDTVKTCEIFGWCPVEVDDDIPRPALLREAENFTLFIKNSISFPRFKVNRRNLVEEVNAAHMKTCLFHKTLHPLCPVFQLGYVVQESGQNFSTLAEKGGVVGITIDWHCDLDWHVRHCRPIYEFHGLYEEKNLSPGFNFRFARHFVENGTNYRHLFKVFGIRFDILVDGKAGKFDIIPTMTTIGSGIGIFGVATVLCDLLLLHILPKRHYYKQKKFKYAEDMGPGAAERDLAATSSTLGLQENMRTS

[4] = tested on: novel avian P2Y receptor that inhibits adenylyl cyclase; conditions: cited from earlier work
P2Y2 = P2Y2 (Homo sapiens, UniProt P41231); conditions: cited from earlier work
Sequence of P2Y2 (P41231 whole entry, species assumed): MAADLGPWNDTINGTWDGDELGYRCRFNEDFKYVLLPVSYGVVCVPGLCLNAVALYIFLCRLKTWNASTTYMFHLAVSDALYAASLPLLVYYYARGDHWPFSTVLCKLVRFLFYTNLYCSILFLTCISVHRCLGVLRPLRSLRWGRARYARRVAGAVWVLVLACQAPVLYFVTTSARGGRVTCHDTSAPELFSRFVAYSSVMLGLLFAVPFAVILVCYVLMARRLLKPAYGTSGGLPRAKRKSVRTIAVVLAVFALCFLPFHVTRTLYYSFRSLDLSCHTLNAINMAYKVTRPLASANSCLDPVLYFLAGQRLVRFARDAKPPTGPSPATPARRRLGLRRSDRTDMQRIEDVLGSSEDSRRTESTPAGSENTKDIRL

Sequence of A2A receptors (P29274 whole entry): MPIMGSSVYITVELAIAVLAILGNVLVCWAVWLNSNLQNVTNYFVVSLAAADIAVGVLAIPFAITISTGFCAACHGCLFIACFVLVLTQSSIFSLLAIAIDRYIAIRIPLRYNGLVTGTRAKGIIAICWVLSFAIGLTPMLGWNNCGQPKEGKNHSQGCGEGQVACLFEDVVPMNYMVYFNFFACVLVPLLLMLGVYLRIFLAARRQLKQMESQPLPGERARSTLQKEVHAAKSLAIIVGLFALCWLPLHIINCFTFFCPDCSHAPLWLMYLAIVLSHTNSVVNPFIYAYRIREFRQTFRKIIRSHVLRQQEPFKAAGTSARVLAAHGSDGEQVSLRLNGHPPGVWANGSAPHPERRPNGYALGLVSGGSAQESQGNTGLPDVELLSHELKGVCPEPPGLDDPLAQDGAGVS
T4 sequence (Q9EPX4 whole entry): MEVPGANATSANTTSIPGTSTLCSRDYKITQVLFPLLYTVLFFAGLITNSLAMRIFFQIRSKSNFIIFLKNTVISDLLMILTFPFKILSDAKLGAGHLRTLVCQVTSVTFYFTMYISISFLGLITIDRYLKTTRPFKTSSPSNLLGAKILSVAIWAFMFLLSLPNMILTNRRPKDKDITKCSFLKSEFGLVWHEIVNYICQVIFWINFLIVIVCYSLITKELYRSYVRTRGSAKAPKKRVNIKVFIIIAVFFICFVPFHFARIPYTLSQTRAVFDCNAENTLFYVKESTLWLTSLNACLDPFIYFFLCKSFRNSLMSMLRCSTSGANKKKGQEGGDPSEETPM
Sequence of P2Y6 (Q15077 whole entry, species assumed): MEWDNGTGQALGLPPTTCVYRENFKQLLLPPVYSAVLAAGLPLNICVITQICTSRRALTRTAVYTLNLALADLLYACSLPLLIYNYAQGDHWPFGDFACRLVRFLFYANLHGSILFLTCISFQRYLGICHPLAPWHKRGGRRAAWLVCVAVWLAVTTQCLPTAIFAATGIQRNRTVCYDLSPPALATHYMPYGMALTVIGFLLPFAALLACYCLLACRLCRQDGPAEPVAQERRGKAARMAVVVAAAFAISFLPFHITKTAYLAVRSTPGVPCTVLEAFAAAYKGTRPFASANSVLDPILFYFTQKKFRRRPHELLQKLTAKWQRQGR
Sequence of P2Y4 (P51582 whole entry, species assumed): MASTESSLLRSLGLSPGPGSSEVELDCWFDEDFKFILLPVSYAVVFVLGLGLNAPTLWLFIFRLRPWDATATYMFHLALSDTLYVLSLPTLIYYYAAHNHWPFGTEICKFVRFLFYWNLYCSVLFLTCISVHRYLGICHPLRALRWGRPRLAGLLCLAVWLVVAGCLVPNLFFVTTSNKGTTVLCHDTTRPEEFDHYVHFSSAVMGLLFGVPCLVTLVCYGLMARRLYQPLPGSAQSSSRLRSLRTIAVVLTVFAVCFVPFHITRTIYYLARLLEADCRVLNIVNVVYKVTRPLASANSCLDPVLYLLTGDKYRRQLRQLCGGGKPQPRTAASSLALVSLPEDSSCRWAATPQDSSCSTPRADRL

SMILES	% displacement, hA2B (human A2B receptor) [% at 50 μM^f]	Ki (A2A receptors) [nM]	Ki (human A3 receptors) [nM]	A1/A3 (human A3 receptors)	substrate of ADA, fold less ([1]; 5d compared with 5c) [fold]	relative rates of deamination [1]	% displacement, rA1 (rat A1 receptors; rat A1 receptors, at 100 μM) [% at 100 μM]	ratio of affinities of N- to S-analogues at the A3 receptor (human A3 receptors; 5c versus 5d, human A3 receptor) [fold]	fold more potent than aristeromycin, 5b, in binding to A3 (human A3 receptors; versus 5b) [fold]	Ki (rat A1 receptors; rat A1 receptors, read-out: K1 (nM), rA1) [nM]	fold more potent than aristeromycin, 5b, in binding to A1 (rat A1 receptors; versus 5b) [fold]	activity at P2Y4 (P2Y4)	Kb [2] [nM]	activity at adenylyl cyclase-linked P2Y receptor in C6 glioma cells [3]	activity at P2Y6 (P2Y6)	EC50 (P2X1 receptors) [nM]	activity at novel avian P2Y receptor [4]	activity at P2Y2 (P2Y2)
Nc1ncnc2c1ncn2C12CC1C(CO)C(O)C2O (racemic) [Compound 5d]	20 ± 4	> 100000	62500	>1	100	0.010	15											
Nc1ncnc2c1ncn2C1C(O)C(O)C2(CO)CC12 (centres unmarked) [Compound 5c, 4-(6-amino-purin-9-yl)-1-hydroxymethyl-bicyclo[3.1.0]hexane-2,3-diol]	35 ± 2	22500	404 ± 70	4.2		0.58		150	4500	1680 ± 80	4							
CNc1ncnc2c1ncn2[C@H]1C[C@H](OP(=O)(O)O)[C@@H](COP(=O)(O)O)O1 [Compound 1a, N6-methyl-2′-deoxyadenosine-3′,5′-bisphosphate]												inactive	~100	inactive	inactive	1200	inactive	inactive
